Assay results from patent US12686690B2, “Macrocyclic urea orexin receptor agonists” (Merck Sharp & Dohme LLC, priority 2020, dated 2026).

Target: T1, hOX2R (Homo sapiens, UniProt O43614)
T1 construct: expressed in transfected cells; host or cells: CHO cells (G418 selection)
T1 sequence (O43614 1-444): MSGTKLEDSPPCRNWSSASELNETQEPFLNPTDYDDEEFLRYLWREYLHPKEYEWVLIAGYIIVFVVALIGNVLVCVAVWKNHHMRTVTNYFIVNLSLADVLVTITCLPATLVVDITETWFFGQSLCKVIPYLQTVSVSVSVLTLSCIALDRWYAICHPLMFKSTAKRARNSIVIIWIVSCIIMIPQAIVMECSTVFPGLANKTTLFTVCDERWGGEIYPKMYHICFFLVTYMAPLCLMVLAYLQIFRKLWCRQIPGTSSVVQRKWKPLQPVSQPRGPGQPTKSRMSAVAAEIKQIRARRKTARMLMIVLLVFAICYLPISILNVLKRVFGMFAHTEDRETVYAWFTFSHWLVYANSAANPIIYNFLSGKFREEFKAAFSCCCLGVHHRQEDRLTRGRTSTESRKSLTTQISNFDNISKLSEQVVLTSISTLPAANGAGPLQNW
Assay: hOX2R IPone assay (orexin receptor agonism)
Type: cell-based
Conditions: IPone readout; for hOX2R_Ipone max %act: maximal activation; for EC50: orexin receptor agonist, read-out: hOX2R_IPone EC50

Row | Compound | hOX2R_Ipone max %act | EC50
1 | CCN1C(=O)N[C@@H](CCC(F)(F)F)CCCCCOc2cc(nc3ccnn23)-c2cc(ncc2OC)[C@H]1C [Example 100, (11R,15R)-12-ethyl-7-methoxy-11-methyl-15-(3,3,3-trifluoropropyl)-11,12,15,16,17,18,19, 20-octahydro-5,22: 10,6-di(metheno)pyrazolo [1,5-c][1,3,5,10,13,15] oxapentaazacycloheni-cosin-13(14H)-one] | 102.2% | 10 nM
2 | CCN1C(=O)N[C@@H](CC(F)(F)F)CCCCCOc2nc(nn3ccnc23)-c2ccnc(c2)[C@H]1C [Example 101, (12R,16R)-13-ethyl-12-methyl-16-(2,2,2-trifluoroethyl)-12,13,16,17,18,19,20, 21-octahydro-6,23-(azeno)-11,7-(metheno)imidazo[2,1-c][1,4,5,10,13,15] oxapentaazacycloheni-cosin-14(15H)-one] | 97.69% | 248 nM
3 | CCN1C(=O)N[C@@H](CCC(F)(F)F)CCCCCOc2nc(nn3ccnc23)-c2ccnc(c2)[C@H]1C [Example 102, (12R,16R)-13-ethyl-12-methyl-16-(3,3,3-trifluoropropyl)-12,13,16,17,18,19,20, 21-octahydro-6,23-(azeno)-11,7-(metheno)imidazo[2,1-c][1,4,5,10,13,15] oxapentaazacycloheni-cosin-14(15H)-one] | 101.4% | 14.9 nM
4 | CCN1C(=O)N[C@@H](CC(F)(F)F)CCCCCOc2nc(cn3ccnc23)-c2ccnc(c2)[C@H]1C [Example 103, (12R,16R)-13-ethyl-12-methyl-16-(2,2,2-trifluoroethyl)-12,13,16,17,18,19,20, 21-octahydro-6,23-(azeno)-11,7-(metheno)imidazo[2,1-c][1,4,10,13,15] oxatetraazacycloheni-cosin-14(15H)-one] | 100.8% | 13.1 nM
5 | CCN1C(=O)N[C@@H](CCC(F)(F)F)CCCCCCc2cc(cn3ccnc23)-c2nc(ccc2OC)[C@H]1C [Example 106, (12R,16R)-13-ethyl-8-methoxy-12-methyl-16-(3,3,3-trifluoropropyl)-12,13,15,16,17,18,19, 20,21,22-decahydro-14H-11,7-(azeno)-6,23-(metheno) imidazo[1,2-1][1,3,12] triazacyclohenicosin-14-one] | 99.7% | 1.7 nM
6 | CCN1C(=O)N[C@@H](CCC(F)(F)F)CCCCCOc2nc(cn3ccnc23)-c2cc(C)nc(c2)[C@@H]1C [Example 107A, (12S,16R)-13-ethyl-9,12-dimethyl-16-(3,3,3-trifluoropropyl)-12,13,16,17,18,19,20, 21-octahydro-6,23-(azeno)-11,7-(metheno)imidazo[2,1-c][1,4,10,13,15] oxatetraazacycloheni-cosin-14(15H)-one] | 92.7% | 166 nM
7 | CCN1C(=O)N[C@@H](CCC(F)(F)F)CCCCCOc2nc(cn3ccnc23)-c2cc(C)nc(c2)[C@H]1C [Example 107B, (12R,16R)-13-ethyl-9,12-dimethyl-16-(3,3,3-trifluoropropyl)-12,13,16,17,18,19,20, 21-octahydro-6,23-(azeno)-11,7-(metheno)imidazo[2,1-c][1,4,10,13,15] oxatetraazacycloheni-cosin-14(15H)-one] | 100.1% | 2.4 nM
8 | CCN1C(=O)N[C@@H](CCC(F)(F)F)CCCCCOc2nc(cn3ccnc23)C2=CN=C(O2)C1C (stereo partly drawn) [Example 108, (15R)-12-ethyl-11-methyl-15-(3,3,3-trifluoropropyl)-11,12,15,16,17,18,19, 20-octahydro-6,22-(azeno)-7,10-epoxyimidazo[2,1-c][1,4,9,12,14]oxatet-raazacycloicosin-13(14H)-one] | 100.6% | 14.9 nM
9 | CCN1C(=O)N[C@@H](CCC(F)(F)F)CCCCCCOc2nc(cn3ccnc23)-c2cc(ncc2OC)[C@H]1C [Example 109, (3R,7R,E)-4-ethyl-25-methoxy-3-methyl-7-(3,3,3-trifluoropropyl)-14-oxa-4,6-diaza-1(6,8)-imidazo[1,2-a]pyrazina-2(4,2)-pyridinacyclotetra-decaphan-5-one] | 102.4% | 1.5 nM
10 | CCN1C(=O)N[C@@H](CCC(F)(F)F)CCCCCOc2nc(cn3ccnc23)-c2ccnc(c2)[C@H]1C [Example 110, (3R,7R,E)-4-ethyl-3-methyl-7-(3,3,3-trifluoropropyl)-13-oxa-4,6-diaza-1(6,8)-imidazo[1,2-a]pyrazina-2(4,2)-pyridinacyclotridecaphan-5-one] | 100.2% | 1.3 nM
11 | CCN1C(=O)N[C@@H](CCC(F)(F)F)CCCCCOc2nc(cn3ccnc23)-c2cc(ncc2OC)[C@H]1C [Example 111, (3R,7R,E)-4-ethyl-25-methoxy-3-methyl-7-(3,3,3-trifluoropropyl)-13-oxa-4,6-diaza-1(6,8)-imidazo[1,2-a]pyrazina-2(4,2)-pyridinacyclotridecaphan-5-one] | 100.7% | 1.4 nM
12 | CCN1C(=O)N[C@@H](CCC(F)(F)F)CCCCCOc2nc(cn3ccnc23)-c2cc(ncn2)[C@H]1C [Example 112A, (12R,16R)-13-ethyl-12-methyl-16-(3,3,3-trifluoropropyl)-12,13,16,17,18,19,20,21-octahydro-6,23-(azeno)-11,7-(metheno)imidazo[2,1-c][1,4,8,10,13,15]oxapentaazacyclohenicosin-14(15H)-one] | 101.2% | 6.8 nM
13 | CCN1C(=O)N[C@@H](CCC(F)(F)F)CCCCCOc2nc(cn3ccnc23)-c2cc(ncn2)C1C (stereo partly drawn) [Example 112B, (16R)-13-ethyl-12-methyl-16-(3,3,3-trifluoropropyl)-12,13,16,17,18,19,20,21-octahydro-6,23-(azeno)-11,7-(metheno)imidazo[2,1-c][1,4,8,10,13,15]oxapentaazacyclohenicosin-14(15H)-one] | 101.8% | 9.3 nM
14 | CCN1C(=O)N[C@@H](CCC(F)(F)F)CCCCCOc2nc(cn3ccnc23)-c2cc(ccn2)[C@@H]1C [Example 113A, (12S,16R)-13-ethyl-12-methyl-16-(3,3,3-trifluoropropyl)-12,13,16,17,18,19,20,21-octahydro-6,23-(azeno)-11,7-(metheno)imidazo[2,1-c][1,4,8,13,15]oxatetraazacyclohenicosin-14(15H)-one] | 98.1% | 105 nM
15 | CCN1C(=O)N[C@@H](CCC(F)(F)F)CCCCCOc2nc(cn3ccnc23)-c2cc(ccn2)[C@H]1C [Example 113B, (12R,16R)-13-ethyl-12-methyl-16-(3,3,3-trifluoropropyl)-12,13,16,17,18,19,20,21-octahydro-6,23-(azeno)-11,7-(metheno)imidazo[2,1-c][1,4,8,13,15]oxatetraazacyclohenicosin-14(15H)-one] | 100.9% | 3.3 nM
16 | CCN1C(=O)N[C@@H](CC(F)(F)F)CCCCCOc2nc(cn3ccnc23)-c2cc(ncc2OC)[C@H]1C [Example 114, (12R,16R)-13-ethyl-8-methoxy-12-methyl-16-(2,2,2-trifluoroethyl)-12,13,16,17,18,19,20,21-octahydro-6,23-(azeno)-11,7-(metheno)imidazo[2,1-c][1,4,10,13,15]oxatetraazacyclohenicosin-14(15H)-one] | 100.9% | 0.7 nM
17 | CCN1C(=O)N[C@H](C(F)(F)F)CCCCCOc2nc(cn3ccnc23)-c2cc(ncc2OC)[C@H]1C [Example 115, (12R,16S)-13-ethyl-8-methoxy-12-methyl-16-(trifluoromethyl)-12,13,16,17,18,19,20,21-octahydro-6,23-(azeno)-11,7-(metheno)imidazo[2,1-c][1,4,10,13,15]oxatetraazacyclohenicosin-14(15H)-one] | 97.2% | 868 nM
18 | CCN1C(=O)N[C@@H](CCC(F)(F)F)CCCCCOc2nc(cn3ccnc23)-c2cc(nnc2OC)[C@H]1C [Example 116, (12R,16R)-13-ethyl-8-methoxy-12-methyl-16-(3,3,3-trifluoropropyl)-12,13,16,17,18,19,20,21-octahydro-6,23-(azeno)-11,7-(metheno)imidazo[2,1-c][1,4,9,10,13,15]oxapentaazacyclohenicosin-14(15H)-one] | 99.7% | 1.6 nM
19 | CCN1C(=O)N[C@@H](CCC(F)(F)F)CCCCCOc2nc(cn3ccnc23)-c2nc(ncc2OC)[C@@H]1C [Example 117A, (12S,16R)-13-ethyl-8-methoxy-12-methyl-16-(3,3,3-trifluoropropyl)-12,13,16,17,18,19,20,21-octahydro-6,23:11,7-di(azeno)imidazo[2,1-c][1,4,10,13,15]oxatetraazacyclohenicosin-14(15H)-one] | 101.7% | 26 nM
20 | CCN1C(=O)N[C@@H](CCC(F)(F)F)CCCCCOc2nc(cn3ccnc23)-c2nc(ncc2OC)[C@H]1C [Example 117B, (12R,16R)-13-ethyl-8-methoxy-12-methyl-16-(3,3,3-trifluoropropyl)-12,13,16,17,18,19,20,21-octahydro-6,23:11,7-di(azeno)imidazo[2,1-c][1,4,10,13,15]oxatetraazacyclohenicosin-14(15H)-one] | 101.9% | 1.5 nM
